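These data come from cells grown in 96-well plates and exposed to compound for 48 hours at five concentrations. GI50 is the concentration that inhibits growth by half.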 Activity calls are given as the source filed them. No stated cut-off is given here; in the data, active = GI50 up to about 1.1 µM and inactive = higher.
How the values were obtained:
Experiment in all cases: growth of human tumour cells (NCI), 48 h
[1] = test system: SF-268
[2] = test system: NCI-H226
[3] = test system: A498
[4] = test system: COLO 205
[5] = test system: HCT-116
[6] = test system: MDA-MB-231
[7] = test system: OVCAR-8
[8] = test system: NCI/ADR-RES
[9] = test system: 786-0
[10] = test system: OVCAR-5
[11] = test system: M14
[12] = test system: SR
[13] = test system: MDA-MB-435
[14] = test system: SNB-75
[15] = test system: T47D
[16] = test system: SK-MEL-5
[17] = test system: K562
[18] = test system: CCRF-CEM
[19] = test system: SK-OV-3
[20] = test system: KM12

Measured: GI50

O=C1c2c(Br)sc(Br)c2[C@@H](Cl)[C@H]1Cl
inactive: [1] 19.1 µM | [2] 16.4 µM | [3] > 100 µM | [4] 15.7 µM | [5] 22.8 µM | [6] 19.5 µM | [7] 15.1 µM | [8] 33.1 µM | [9] 24.5 µM | [10] 20.8 µM | [11] 19.7 µM | [12] 2.81 µM | [13] 19.3 µM | [14] 17.6 µM | [15] 19 µM | [16] 16.1 µM | [17] 10 µM | [18] 3.18 µM | [19] 19.4 µM | [20] 17.2 µM

O=C(Nc1ccccc1)O/N=C(/CBr)c1ccccc1
inactive: [1] 14.3 µM | [2] 24 µM | [3] 24 µM | [4] 15.7 µM | [5] 4.3 µM | [6] 12.2 µM | [7] 14.6 µM | [8] 17.9 µM | [9] 7.71 µM | [10] 18.1 µM | [11] 6.79 µM | [12] 3.94 µM | [13] 4.84 µM | [14] 15.2 µM | [15] 11.5 µM | [16] 11.9 µM | [17] 4.12 µM | [18] 3.52 µM | [19] 29.2 µM | [20] 17.9 µM

CCCCc1c2c(nc3c1CCC/C3=C\c1ccccc1)C(=O)C(CN(C)C)CC2 (stereo not given)
inactive: [1] 16.2 µM | [2] 22.6 µM | [3] 18.7 µM | [4] 19.1 µM | [5] 16 µM | [6] 11.1 µM | [7] 20.8 µM | [8] 29.3 µM | [9] 10 µM | [10] 18.2 µM | [11] 17.4 µM | [12] 2.76 µM | [13] 17.2 µM | [14] 18.1 µM | [15] 3.61 µM | [16] 16.9 µM | [17] 6.89 µM | [18] 3.17 µM | [19] 18.5 µM | [20] 16.9 µM
